Read-outs that look alike come from different tables or passages of the source.
Key:
[1] = buffer; cited from earlier work
[2] = Stability by HPLC peak area decrease, first order decay half-life; format: physicochemical; conditions: culture media, First order decay half-life (t1/2)

SMILES | half-life [1] [h] | half-life [2] [min]
COC[C@H]1OC(=O)c2coc3c2[C@@]1(C)C1=C(C3=O)[C@@H]2CCC(=O)[C@@]2(C)C[C@H]1OC(C)=O [Wm, wortmannin] | 57.8 | < 1
C[C@@]12c3ccc4c(c3C(=O)c3occ(c31)C(=O)C[C@H]2OC(=O)CCC(=O)O)CCC4=O [SA-Dmv] | – | < 1

Reference: PMC2877487 (Bioorganic & medicinal chemistry letters, 2009)
